This passage reports MIC results from DBAASP.

In brackets after ≈: the same amount, converted by molar mass. Some results are limits rather than exact numbers.

Among the test systems are Candida krusei ATCC 6258; Listeria monocytogenes; Escherichia coli UTI89; Escherichia coli D31; Escherichia coli J2210; Escherichia coli JJ2487; Escherichia coli MC1061; Escherichia coli O157:H7.
What all share (assay): ≥ marks a high value that may be exact or a test limit, other limits are often not marked, values filed in µg/mL are converted to µM
Experiment [1] deals with Candida tropicalis ATCC 20240.
In experiment [2] the test system is Candida glabrata ATCC 90525.
Experiment [3] relates to Candida albicans ATCC 2048.
In experiment [4] the test system is Candida parapsilosis ATCC 20224.
In experiment [5] the test system is Staphylococcus aureus ATCC 25923.
For experiment [6], the system named is Listeria monocytogenes NCTC 18890.
Experiment [7] has as its system Staphylococcus aureus ATCC 29213.
The test system of experiment [8] is Listeria monocytogenes ATCC 7644.
The subject of experiment [9] is Staphylococcus epidermidis ATCC 35984.
For experiment [10], the system named is Enterococcus faecalis ATCC 29212.
Experiment [11] relates to Listeria monocytogenes ATCC 19115.
Experiment [12] relates to Pseudomonas aeruginosa ATCC 15442.
Experiment [13] has as its system Staphylococcus aureus ATCC 6538.
In experiment [14] the test system is Listeria monocytogenes ATCC 19114.
Experiment [15] has as its system Escherichia coli K12 MG1655.
Experiment [16] concerns Salmonella enterica subsp. enterica serovar Typhimurium ATCC 14028.
Experiment [17] relates to Staphylococcus epidermidis.
For experiment [18], the system named is Pseudomonas aeruginosa ATCC 10145.
In experiment [19] the test system is Staphylococcus aureus ATCC 27660.
The test system of experiment [20] is Klebsiella pneumoniae ATCC 700603.
Experiment [21] concerns Escherichia coli BCRC 13B0207.
The subject of experiment [22] is Acinetobacter baumannii BCRC 14B0097.
Experiment [23] has as its system Enterococcus faecium BCRC 15B0132.
Experiment [24] deals with Acinetobacter baumannii BCRC 14B0091.
Experiment [25] relates to Escherichia coli BCRC 13B0198.
For experiment [26], the system named is Acinetobacter baumannii BCRC 14B0100.
The subject of experiment [27] is Legionella pneumophila Lens.
The test system of experiment [28] is Salmonella typhimurium CMCC 50013.
Experiment [29] relates to Bacillus subtilis KCTC 3068.
In experiment [30] the test system is Escherichia coli ATCC 25922.
Experiment [31] has as its system Salmonella typhimurium SL1344.
Experiment [32] deals with Salmonella enterica subsp. enterica serovar Enteritidis MH91989.

The MIC is the least concentration at which growth counts as inhibited. A higher MIC goes with weaker potency. For the compound `CC(C)C[C@H](NC(=O)[C@H](C)N)C(=O)N[C@@H](CCC(N)=O)C(=O)NCC(=O)N[C@@H](C)C(=O)N[C@@H](CCCCN)C(=O)N[C@@H](CCC(=O)O)C(=O)N[C@@H](CCCN=C(N)N)C(=O)N[C@@H](C)C(=O)N[C@@H](Cc1cnc[nH]1)C(=O)N[C@@H](CCC(N)=O)C(=O)N[C@@H](CCC(N)=O)C(=O)O` [ALQGAKERAHQQ], the minimum inhibitory concentration (MIC) was not below 75 µM in [1]; not below 270 µM with Candida krusei ATCC 6258; not below 260 µM in experiment [2]; not below 280 µM in [3]; not below 270 µM in experiment [4].

As to `CC(C)C[C@H](NC(=O)[C@H](C)NC(=O)[C@H](Cc1cnc[nH]1)NC(=O)[C@H](Cc1cnc[nH]1)NC(=O)CNC(=O)[C@H](CC(C)C)NC(=O)[C@H](Cc1cnc[nH]1)NC(=O)[C@H](CO)NC(=O)[C@H](C)N)C(=O)N[C@@H](CC(=O)O)C(=O)N[C@@H](Cc1cnc[nH]1)C(=O)N[C@@H](CC(C)C)C(=O)N[C@@H](CC(C)C)C(=O)N[C@@H](CCCCN)C(=O)O` [ASHLGHHALDHLLK], the MIC in experiment [5] is 8070 µM (≈ 12500 µg/mL); in [6], not below 3230 µM; in experiment [7], 8070 µM (≈ 12500 µg/mL); in [8] it was not below 3230 µM; in [9], not below 8070 µM; in experiment [10], 8070 µM (≈ 12500 µg/mL). The MIC in [11] was not below 3230 µM; against Listeria monocytogenes, not below 3230 µM; in [12], not below 8070 µM; in [13], 8070 µM (≈ 12500 µg/mL); in experiment [14], not below 3230 µM.

Consider `CC[C@H](C)[C@H](NC(=O)[C@H](CCCCN)NC(=O)[C@@H](N)CCCCN)C(=O)NCC(=O)N[C@@H](CCC(N)=O)C(=O)N[C@@H](CCCCN)C(=O)N[C@H](C(=O)N[C@@H](CCCCN)C(=O)N[C@@H](CC(N)=O)C(=O)N[C@@H](Cc1ccccc1)C(=O)N[C@@H](Cc1ccccc1)C(=O)N[C@@H](CCC(N)=O)C(=O)N[C@@H](CCCCN)C(=O)N[C@@H](CC(C)C)C(=O)O)[C@@H](C)CC` [KKIGQKIKNFFQKL], for which the MIC in experiment [15] is not below 50 µM; in the experiment with Escherichia coli UTI89, not below 50 µM; in experiment [16], more than 50 µM; in [17], not below 50 µM.

With `CC[C@H](C)[C@H](NC(=O)CNC(=O)[C@H](CCCCN)NC(=O)[C@H](Cc1c[nH]c2ccccc12)NC(=O)[C@H](CC(C)C)NC(=O)[C@H](CCCCN)NC(=O)[C@H](CCCCN)NC(=O)[C@H](C)NC(=O)[C@H](CCCCN)NC(=O)[C@H](CCCCN)NC(=O)[C@H](Cc1ccccc1)NC(=O)CNC(=O)[C@H](CCCCN)NC(=O)[C@H](C)NC(=O)[C@H](Cc1ccccc1)NC(=O)[C@@H](NC(=O)[C@H](CCCCN)NC(=O)[C@@H](NC(=O)[C@H](CC(C)C)NC(=O)[C@H](CCCCN)NC(=O)[C@@H](N)CCCCN)[C@@H](C)CC)C(C)C)C(=O)NCC(=O)O` [KKLIKVFAKGFKKAKKLWKGIG], the MIC against Escherichia coli D31 worked out at 0.94 µM (≈ 2.37 µg/mL); in [18], 1.88 µM (≈ 4.73 µg/mL); in experiment [19] it was 0.97 µM (≈ 2.44 µg/mL); in experiment [20], 1.88 µM (≈ 4.73 µg/mL).

In the case of `CC(=O)N[C@@H](CCCCN)C(=O)N[C@@H](CCCCN)C(=O)N[C@@H](Cc1c[nH]c2ccccc12)C(=O)N[C@@H](CCCN=C(N)N)C(=O)N[C@@H](CCCCN)C(=O)N[C@@H](Cc1c[nH]c2ccccc12)C(=O)N[C@@H](CC(C)C)C(=O)N[C@@H](C)C(=O)N[C@@H](CCCCN)C(=O)N[C@@H](CCCCN)C(N)=O` [KKWRKWLAKK], the MIC in experiment [21], in experiment [22], in experiment [23], in [24], in experiment [25] and in experiment [26] was not below 46.7 µM throughout.

The compound `CC[C@H](C)[C@H](NC(=O)[C@H](CC(C)C)NC(=O)[C@H](CC(=O)O)NC(=O)[C@@H](NC(=O)[C@@H](NC(=O)[C@H](Cc1ccccc1)NC(=O)[C@H](CCC(N)=O)NC(=O)[C@@H](N)CCSC)[C@@H](C)CC)[C@@H](C)O)C(=O)N[C@@H](CCCCN)C(=O)N[C@@H](CCCCN)C(=O)N[C@@H](C)C(=O)N[C@H](C(=O)N[C@@H](CC(=O)O)C(=O)N[C@H](C(=O)N[C@H](C(=O)N[C@@H](CCCCN)C(=O)NCC(=O)N[C@@H](CC(C)C)C(=O)N[C@@H](Cc1ccccc1)C(=O)NCC(=O)N[C@@H](CC(N)=O)C(=O)N[C@@H](CCCCN)C(=O)O)[C@@H](C)CC)C(C)C)C(C)C` [MQFITDLIKKAVDVIKGLFGNK] gave an MIC in experiment [27] of 1.26 µM (≈ 3.12 µg/mL).

Regarding `CC[C@H](C)[C@H](NC(=O)[C@@H](N)CO)C(=O)N[C@@H](CO)C(=O)N[C@@H](CC(C)C)C(=O)N[C@@H](CC(C)C)C(=O)N[C@@H](Cc1ccc(O)cc1)C(=O)NCC(=O)N[C@@H](CCCN=C(N)N)C(=O)N[C@@H](CCCCN)C(=O)N[C@@H](CCCCN)C(=O)N[C@@H](CCCN=C(N)N)C(=O)N[C@@H](CCCN=C(N)N)C(=O)N[C@@H](CCC(N)=O)C(=O)N[C@@H](CCCN=C(N)N)C(=O)N[C@@H](CCCN=C(N)N)C(=O)N[C@@H](CCCN=C(N)N)C(=O)O` [SISLLYGRKKRRQRRR], the MIC in [28] stood at 20.8 µM (≈ 43.1 µg/mL); in [29], 5.9 µM (≈ 12.2 µg/mL); in [30], 10.3 µM (≈ 21.4 µg/mL); in experiment [7], 11 µM (≈ 22.8 µg/mL).

On to `CC[C@H](C)[C@H](NC(=O)[C@H](CCCN=C(N)N)NC(=O)[C@H](CCCN=C(N)N)NC(=O)[C@@H]1CCCN1C(=O)[C@@H]1CCCN1C(=O)[C@H](CCCN=C(N)N)NC(=O)[C@@H]1CCCN1C(=O)[C@H](CCCN=C(N)N)NC(=O)[C@@H]1CCCN1C(=O)[C@H](CCCCN)NC(=O)[C@H](Cc1ccc(O)cc1)NC(=O)[C@@H]1CCCN1C(=O)[C@H](CCCCN)NC(=O)[C@H](CCCCN)NC(=O)[C@H](CC(=O)O)NC(=O)[C@@H](N)C(C)C)C(=O)N[C@@H](Cc1ccc(O)cc1)C(=O)N[C@@H](CC(N)=O)C(=O)N[C@@H](CCCN=C(N)N)C(N)=O` [VDKKPYKPRPRPPRRIYNR], for which the minimum inhibitory concentration (MIC) in the experiment with Escherichia coli J2210 came to 0.0821 µM (≈ 0.2 µg/mL); in experiment [31], 0.172 µM (≈ 0.42 µg/mL); with Escherichia coli JJ2487, 0.123 µM (≈ 0.3 µg/mL); in experiment [32] it was 0.172 µM (≈ 0.42 µg/mL); with Escherichia coli MC1061, 0.0616 µM (≈ 0.15 µg/mL); against Escherichia coli O157:H7 it was 0.644 µM (≈ 1.57 µg/mL).
